The text below walks through data of patent US20210100777A1, “HEAT SHOCK PROTEIN (HSP) INHIBITION AND MONITORING EFFECTIVENESS THEREOF” (H. LEE MOFFITT CANCER CENTER AND RESEARCH INSTITUTE, INC., priority 2013, published 2021).

One assay deals with melanoma cell lines. Put plainly: Colony formation assay. In kind it is cell-based. To be noted: 300 nM, up to 4 weeks; any of the cell lines. How it is done: Colony formation. Cells (1×10^4 per ml) were grown overnight before being treated with vehicle (DMSO) or XL888 (300 nM) for 4 weeks as described in (Paraiso et al., Br. J. Cancer 102:1724-30 (2010)), and relative colony density was determined by solubilizing the crystal violet dye in 10% acetic acid followed by measurement of absorbance at 450 nm.

For assay [1], the system named is matched pairs of vemurafenib naïve and resistant melanoma cell lines and melanoma cell lines with intrinsic resistance. Description: Growth inhibition, MTT assay. In kind it is cell-based. The method, then:
Growth inhibition. Cells were plated at a density of 2.5×10^4 cells per ml and left to grow overnight before being treated with increasing concentrations of vemurafenib or XL888. After 72 hours, the levels of growth inhibition were examined using the MTT assay (Smalley et al., Br. J. Cancer 96:445-9 (2007)). […] Vemurafenib and XL888 were dissolved in 100% DMSO and stored at −20° C. as a 10 mM solution.
Statistical analysis of GI50 values. Triplicate experiments were performed for each cell line under each drug treatment. To estimate the IC50 values for each cell line for each treatment, a 4-parameter Hill equation was used to model the nonlinear sigmoid relationship between the drug concentration and % cell survival. Briefly,
where x is the drug concentration, y is the % survival, ε is the error term. The four parameters in the model to estimate are: 1) the control-level effect (E); 2) the background-level effect (B); 3) the median effect concentration (GI50); and 4) the strength of the inhibition (m). The constraint of non-negative minimum background effect (B) is imposed so the model is biologically meaningful. Levenberg-Marquardt algorithm for nonlinear least squares was used to fit the model and estimate all four parameters for each cell line under each treatment. Estimated concentration at 50% cell survival, i.e., IC50, is estimated using the plugged-in parameters after model fitting. Note that when the control and background effects are 100% and 0%, respectively, the estimated GI50 and IC50 values would be identical. To compare the estimated IC50 values between the resistance and naïve paired of cell lines, after log transformation, a paired t-test was performed for each drug.
On the technique in general: Formazan colour is commonly taken as a measure of viable cells.

Another assay deals with HSP70 isoform 1 (HSP71). Description: LC-MRM pharmacodynamic assay of HSP90 inhibition in melanoma cell lines. In kind it is cell-based. Conditions: 300 nM, 0-48 hours; naïve, intrinsically resistant and acquired resistant cell lines. How it is done: Proteomics Sample Preparation. Proteins were extracted as described for Western Blotting and processed as described in (Remily-Wood et al., Proteomics Clin. App. 5:383-96 (2011)).
(§1) Liquid chromatography, multiple reaction monitoring mass (LC-MRM) spectrometry (LC MRM) analysis. LC-MRM was performed as described in (Remily-Wood et al., Proteomics Clin. App. 5:383-96 (2011)). Protein expression was determined using the ratio of peak area of the native peptide to corresponding internal standard; normalization of tissue results was performed using GAPDH to control for cellularity (Table 9). Data were then normalized to the pretreatment (cell lines) or vehicle controls (tissue) and plotted to show the changes in expression after drug treatment.

In a further assay the test system is intratumoral HSP70. Description: LC-MRM analysis of xenograft samples. In kind it is in vivo, BALB SCID mice. To be noted: 15-days of treatment, 100 mg/kg. The method, then: as §1
Xenograft experiments. BALB SCID mice (The Jackson Laboratory, Bar Harbor, Me.) were subcutaneously injected with 2.5×10^6 cells per mouse (resuspended in 111 μL L-15 media, 10 mM HEPES, 37.5 μL Matrigel). Tumors were grown to approximately 100 mm^3 prior to dosing. Mice were treated with either 100 mg XL888/kg (n=5) or an equivalent volume of vehicle (10 mM HCl), 3 times per week by oral gavage. Mouse weights and tumor volumes (L×W2/2) were measured 3 times per week. Upon completion of the experiment, vehicle and drug treated tumor biopsies were processed for LC-MRM analysis (as above).

For another assay, the system named is HSPs in 8226/LR5 cells. Description: DI-MRM relative quantification of HSPs after 17-DMAG (Example 2). Format: cell-based, human. To be noted: for CDC37 Fold Change, DI-MRM / HS90A Fold Change, DI-MRM / HS90B Fold Change, DI-MRM / HSP7C Fold Change, DI-MRM / HSP7E Fold Change, DI-MRM / HSP71 Fold Change, DI-MRM / HSP74 Fold Change, DI-MRM / HSPA5 Fold Change, DI-MRM / HSP90α Fold Change, DI-MRM: 8226/LR5, 50 nM, 24 hrs vs. control. The method, then: Synthesis and DI MRM of Standard Peptides. Standard peptides were synthesized and characterized as described previously (Remily-Wood et al., Proteomics Clin. Appl. 5:383-96 (2011)). An automated chip-based nanoelectrospray ion source, (NanoMate100, Advion BioSciences, Ithaca, N.Y.), was mounted on a triple quadrupole mass spectrometer (TSQ Vantage, Thermo, San Jose, Calif.). […] (SEQ ID NO:17) were diluted to 1 μM in 50% aqueous ACN with 0.1% formic acid. For synthetic peptide infusion, the spray voltage was tuned between 1.5 and 1.9 kV for stable ion signal. The gas pressure was set to 0.3 psi. Data were acquired at 20 ms per transition for 2 minutes using m/z 0.002 scan widths. The quadrupole resolution values were modulated from 0.2 to 0.7. […]
Cell Culture, Lysis, and HSP Sample Preparation for Mass Spectrometry. RPMI-8226 and 8226/LR5 cells were maintained as previously described (Bellamy et al., Cancer Res. 51:995-1002 (1991); Remily-Wood et al., Proteomics Clin. Appl. 5:383-96 (2011)). The heat shock protein 90 inhibitor, 17-desmethoxy-17-N,N-dimethylaminoethylamino-geldanamycin (17-DMAG), was dissolved in DMSO (100 μM stock). Based on prior IC50 measurements, the RPMI-8226 cells were treated with 100 nM 17-DMAG for 24 hours, and 8226/LR5 cells were treated with 50 nM 17-DMAG. Cells (n=10^6) were lysed using in aqueous 100 mM ammonium bicarbonate containing 8M urea for protein denaturation. Protein concentrations were measured by Bradford assays; consistent aliquots of total protein (380 ng) were injected for LC-MRM, and the same solutions were used for DI-MRM. Digestion, addition of SIS peptides, and mass spectrometry sample preparation were performed as described for standard proteins.
Calculation of Correction Factors to Account for Interference in DI MRM. […] To evaluate the ability to eliminate these contributions, correction factors were calculated based on LC-MRM data using the following set of equations (Equations 1 and 2): […]

Where [2] appears, read: all LC-MRM transitions, interference-corrected.
Setting [3] is: noise corrected, only transitions below 40% interference.

For the compound `CC[C@@H](C)Nc1cc(C(=O)N[C@@H]2C[C@H]3CC[C@@H](C2)N3c2ccc(C(=O)C3CC3)cn2)c(C)cc1C(N)=O` [XL888, 5-((R)-sec-butylamino)-N1-((1R,3s,5S)-8-(5-(cyclopropanecarbonyl)pyridin-2-yl)-8-azabicyclo[3.2.1]octan-3-yl)-2-methylterephthalamide], in the assay on melanoma cell lines, the colony formation result was “no signs of colony formation”. In addition, the “growth of the cell lines” value in assay [1] (1 nM-10 μM, 72 hours, MTT) is listed as “dose dependent decreases in the growth of all the cell lines”. The “difference in growth inhibition / IC50 between naïve and resistant pairs of cell lines” value in assay [1] (M229/M229R, M249/M249R, WM164/WM164R, 1205Lu/1205LuR, paired t-test) is on record as “no significant difference in IC50 values”. Besides, the “expression of HSP70 isoform 1 (HSP71)” value in the assay on HSP70 isoform 1 (HSP71) is “robust time-dependent increases”. For the same compound, the “increase in intratumoral HSP70 expression compared to controls” value in the assay with intratumoral HSP70 worked out at 8.6 fold.

Take `CO[C@H]1/C=C\C=C(/C)C(=O)NC2=CC(=O)C(NCCN(C)C)=C(C[C@@H](C)C[C@H](OC)[C@H](O)[C@@H](C)/C=C(\C)[C@@H]1OC(N)=O)C2=O` [17-DMAG, 17-Dimethylaminoethylamino-17-demethoxygeldanamycin]: in the assay on HSPs in 8226/LR5 cells (setting [2]), the “CDC37 Fold Change, DI-MRM” value worked out at 1.24; the “HS90A Fold Change, DI-MRM” value came out at 1.12; the “HS90B Fold Change, DI-MRM” value is recorded as 1.23; the “HSP7C Fold Change, DI-MRM” value was found to be 0.94. In the assay on HSPs in 8226/LR5 cells (setting [2]), the “HSP7E Fold Change, DI-MRM” value worked out at 0.93; the “HSP71 Fold Change, DI-MRM” value turned out to be 5.50; the “HSP74 Fold Change, DI-MRM” value was 1.33; the “HSPA5 Fold Change, DI-MRM” value was 0.86. Besides, in the assay with HSPs in 8226/LR5 cells (setting [3]), the “CDC37 Fold Change, DI-MRM” value is recorded as 1.35; the “HS90A Fold Change, DI-MRM” value is 1.14; the “HS90B Fold Change, DI-MRM” value is 1.23; the “HSP7C Fold Change, DI-MRM” value was determined as 1.14. Besides, in the assay with HSPs in 8226/LR5 cells (setting [3]), the “HSP7E Fold Change, DI-MRM” value is on record as 1.05; the “HSP71 Fold Change, DI-MRM” value came out at 5.51; the “HSP74 Fold Change, DI-MRM” value was 1.41; the “HSPA5 Fold Change, DI-MRM” value amounted to 0.90. Further, in the assay on HSPs in 8226/LR5 cells (y3 (Least Interference)), the “HSP90α Fold Change, DI-MRM” value is listed as 0.76. Moreover, the “HSP90α Fold Change, DI-MRM” value in the assay on HSPs in 8226/LR5 cells (y3-y5 (DI-MRM Interference-Corrected)) was 1.14. Also, the “HSP90α Fold Change, DI-MRM” value in the assay with HSPs in 8226/LR5 cells (y3-y5 (Selected Transitions)) came out at 1.13. Moreover, the “HSP90α Fold Change, DI-MRM” value in the assay with HSPs in 8226/LR5 cells (y3-y6 (DI-MRM Interference-Corrected)) turned out to be 1.12. Further, the “changes in expression of HSP90α, DI-MRM” value in the assay on HSPs in 8226/LR5 cells (8226/LR5, 24 hours after treatment) was 1.1 fold.
